Source: patent US20090176870A1, “TGF-BETA MODULATORS AND METHODS FOR USING THE SAME” (MARSHFIELD CLINIC, priority 2005, published 2009)

Legend:
^125I labeled TGF-β1 = ^125I labeled TGF-β1 (Homo sapiens, UniProt P01137); assay: 125I labeled TGF-β1 remaining in solution after incubation with compound and centrifugation; conditions: for Amount of ^125I labeled TGF-β1 in solution: 0.5 μL compound in 100 μL DMEM, 0.2% FBS overnight, 90 μL supernatant counted
Procedure: About 10 μL of ^125I labeled TGF-β1 (22.78 μCi/ml, 6.3 pmole/ml) was incubated with 0.5 μL of the compound in 100 μL of DMEM, 0.2% FBS overnight and then centrifuged. […] However, for compound NSC 119889 there was approximately a 40% increase in the amount of ^125I that remained in solution relative to the control. While this might be due to the compound decreasing adherence of TGF-β to the microcentrifuge tube, the lack of precipitation of the ^125I labeled TGF-β is consistent with the compounds blocking interaction of TGF-β1 with the receptor possibly by direct interaction with the receptor.

[1] = Precipitate formation / solubility; assay type: physicochemical; conditions: for Solubility: Table 3; for precipitate formation when diluted into water: room temperature, centrifugation at 17,000×G
TβRIII = molecular target: T1, TβRIII (Homo sapiens, UniProt Q03167); assay: Soluble TβRIII receptor assay with 125I labeled TGF-β1; assay type: binding; conditions: for Amount of ^125I labeled TGF-β1 bound to TβRIII: soluble receptor assay, control 25048
T1 construct: purchased R&D Systems
T1 sequence (Q03167 21-787 limits assumed): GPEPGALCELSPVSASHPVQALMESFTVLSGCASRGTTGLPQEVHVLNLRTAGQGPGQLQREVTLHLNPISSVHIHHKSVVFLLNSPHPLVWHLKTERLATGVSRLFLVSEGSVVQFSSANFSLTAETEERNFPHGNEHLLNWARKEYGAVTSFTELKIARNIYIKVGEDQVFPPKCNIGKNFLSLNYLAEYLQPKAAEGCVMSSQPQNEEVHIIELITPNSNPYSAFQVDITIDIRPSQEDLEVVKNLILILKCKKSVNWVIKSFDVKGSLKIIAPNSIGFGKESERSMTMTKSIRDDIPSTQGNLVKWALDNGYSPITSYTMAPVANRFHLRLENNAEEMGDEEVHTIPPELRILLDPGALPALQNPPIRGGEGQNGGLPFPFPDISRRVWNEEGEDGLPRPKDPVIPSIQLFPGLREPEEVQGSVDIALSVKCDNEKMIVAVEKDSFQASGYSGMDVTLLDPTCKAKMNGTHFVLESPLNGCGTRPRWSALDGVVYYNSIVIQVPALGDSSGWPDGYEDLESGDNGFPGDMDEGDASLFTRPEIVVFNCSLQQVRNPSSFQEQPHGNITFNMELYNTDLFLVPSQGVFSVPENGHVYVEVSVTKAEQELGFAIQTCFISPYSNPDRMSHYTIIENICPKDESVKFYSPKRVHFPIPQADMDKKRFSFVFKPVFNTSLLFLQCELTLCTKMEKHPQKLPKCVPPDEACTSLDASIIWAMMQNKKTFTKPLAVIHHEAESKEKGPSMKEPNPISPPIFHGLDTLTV
Procedure: The compound NSC 119889 and related molecules also block soluble TGF-β receptor type III (TβRIII). TβRIII binds TGF-β1 and TGF-β2 and is involved in presenting TGF-β2 to TβRII. […] TβRIII was purchased from R&D Systems (Minneapolis, Minn.). It was used at concentration of 500 ng/mL in the soluble receptor assay when Immulon 2HB plates were used and at 1 μg/mL when Immulon 1B plates were used.

[2] = system: TGF-β1 growth inhibition of Mv1Lu cells; assay: Mv1Lu growth inhibition assay with TGF-β1; assay type: cell-based, mink; conditions: TGF-β1 1.5 ng/mL serially diluted to 0.095 ng/mL with compound, FIGS. 4A-4D
Procedure: Mv1Lu cells were purchased from ATCC. Growth inhibition assays for Mv1Lu and CHO cells were performed as described by Danielpour et al., in J. Cell. Physiol., 1989, 138, 79-86, using 0.2% fetal bovine serum to limit binding proteins present in serum. Mv1Lu cells were cultured in the presence of a standard TGF-β dilution curve starting at 1.5 ng/mL and serially diluted to 0.047 ng/mL or in the presence of TGF-β1 (1.5 ng/mL serially diluted to 0.095 ng/mL) with the compound. For each tested compound, one assay contained only the compound and no added TGF-β1.

TβRII = molecular target: T2, TβRII (Homo sapiens, UniProt P37173); assay: Soluble TβRII binding assay with 125I labeled TGF-β1; conditions: I-125 TGF-β1, increasing concentration of competitor, FIG. 6
T2 construct: purchased R&D Systems
T2 sequence (P37173 23-166 limits assumed, species assumed): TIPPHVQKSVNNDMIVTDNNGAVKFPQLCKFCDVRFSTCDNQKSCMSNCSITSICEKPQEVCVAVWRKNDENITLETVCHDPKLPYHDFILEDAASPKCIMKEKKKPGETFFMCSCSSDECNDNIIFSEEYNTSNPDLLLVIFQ
Procedure: Immulon 1B or 2 HB 96 well plates (Dynex Technologies, Inc., Chantilly, Va.) were coated with 100 μL/well of 500 ng/mL TβRII (R&D Systems, Minneapolis, Minn.) in phosphate buffered saline overnight at 4° C. and then blocked for 1 hr with 150 μL/well of 1% bovine serum albumin, 150 mM NaCl, 100 mM tris-HCl, pH 7.6. Following washing with PBS/0.05% Tween 20 (wash buffer, i.e., “WB”) samples were serially diluted in 1 mg/mL BSA, 0.15 M NaCl, 100 mM tris-HCl, pH 7.6, 0.05% Tween 20 containing 5 ng/mL of ^125I labeled TGF-β1 as described by Frolik et al., in J. Biol. Chem., 1984, 259, 10995-11000. Samples were incubated in the wells with TβRII for one hour at room temperature and then the plates were washed with WB. Individual wells were separated and counted.
To identify novel organic chemicals that block TGF-B activity, about 30,000 chemicals from the National Cancer Institute Developmental Therapeutics program open repository were screened. This repository contains about 140,000 chemicals. For screening, soluble TBRII was attached to an immulon 2 HB plate and then blocked with BSA. About 1 μL of each test chemical was diluted from the stock plate into 125 μL of dilution buffer containing 5 ng/mL I-125 labeled TGF-β1. In some cases, 1 μL of four chemicals each was combined to allow higher throughput. […]

[3] = system: TGF-β1 stimulated growth of CHO cells; assay: CHO cell growth stimulation by TGF-β1; assay type: cell-based, Chinese hamster; conditions: 1 L (FIG. 5A) and 2 μL (FIG. 5B) of blocking compound
Procedure: (§1) Mv1Lu cells were purchased from ATCC. Growth inhibition assays for Mv1Lu and CHO cells were performed as described by Danielpour et al., in J. Cell. Physiol., 1989, 138, 79-86, using 0.2% fetal bovine serum to limit binding proteins present in serum.

[4] = system: TGF-β1 activity in CHO cells carrying the plasmid pTARE-Luc; assay: pTARE luciferase reporter assay in CHO cells; assay type: cell-based, Chinese hamster; conditions: compound 1 μL/mL with added TGF-β1 25 ng/mL, FIG. 2B
Procedure: The pTARE luciferase reporter system was purchased from Stratagene (La Jolla, Calif.) and transfected into CHO (Chinese Hamster Ovary) cells that were purchased from ATCC (American Type Culture Collection). The plasmid pSV2neo was co-transfected with pTARE at a 40 fold lower concentration to allow for selection of colonies that received plasmid DNA using G418. Luciferase assays were performed as described using Luciferase assay system and reporter lysis buffer (Promega, Madison, Wis.). Luciferase was quantitated using a luminometer (Turner Designs, Inc., Sunnyvale, Calif.).
Compounds of Table 1 (see Example 1 above) were further tested for their ability to modulate TGF-β1 activity. Briefly, the CHO cells carrying the plasmid pTARE-Luc were treated either with each compound individually (1 μL/mL) or with added TGF-β1 (25 ng/mL). Without being bound by any theory, it is believed that testing the compound by itself in this assay allows the identification of candidate TβRII agonists while testing the chemical in the presence of TGF-β1 allows the identification of candidate TGF-β1 antagonists.

CHO cells = assay: CHO cell growth, tritiated thymidine incorporation; assay type: cell-based, Chinese hamster; conditions: for amount of radioactivity incorporated into CHO cells: tritiated thymidine
Procedure: as §1
Chinese hamster ovarian (i.e., CHO) cells were cultured in the presence of compounds and tested for growth in the presence of tritiated thymidine. […] The reported value is the average of duplicate assays.

^125I labeled TGF-β1, sequence (P01137 279-390 limits assumed): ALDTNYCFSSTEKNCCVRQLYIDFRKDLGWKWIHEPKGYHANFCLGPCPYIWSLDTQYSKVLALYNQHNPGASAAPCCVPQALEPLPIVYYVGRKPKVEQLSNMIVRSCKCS

O=C(O)/C=C/c1c2ccc(=O)c(O)c-2oc2c(O)c(O)ccc12 [NSC 119911]
Amount of ^125I labeled TGF-β1 in solution (^125I labeled TGF-β1; first value column): 33990
Amount of ^125I labeled TGF-β1 in solution (^125I labeled TGF-β1; second value column): 25748
Amount of ^125I labeled TGF-β1 in solution (^125I labeled TGF-β1; third value column): 24534
Solubility [1]: ppt
precipitate formation when diluted into water [1]: form precipitates
Amount of ^125I labeled TGF-β1 bound to TβRIII (TβRIII): 769
blocking of growth inhibition of TGF-β1 [2]: blocks growth inhibition by TGF-β1

TGF-β1: non-labeled TGF-β1 protein used as competitor for TβRII in the binding competition curve
binding competition vs TGF-β1 for soluble TβRII, effective concentration range (TβRII): nanomolar range

Oc1cc(O)c2c(c1)OC(c1ccc(O)c(O)c1)C(OC1(c3cc(O)c(O)c(O)c3)Oc3cc(O)cc(O)c3C(O)C1O)C2 (stereo not shown) [NSC 143101]
Amount of ^125I labeled TGF-β1 in solution (^125I labeled TGF-β1; first value column): 34567
Solubility [1]: no ppt

O=C(O)CCc1c2ccc(=O)c(O)c-2oc2c(O)c(O)ccc12 [NSC 119915]
Amount of ^125I labeled TGF-β1 in solution (^125I labeled TGF-β1; first value column): 33660
Amount of ^125I labeled TGF-β1 in solution (^125I labeled TGF-β1; second value column): 25308
Amount of ^125I labeled TGF-β1 in solution (^125I labeled TGF-β1; third value column): 20770
Solubility [1]: ppt
precipitate formation when diluted into water [1]: form precipitates
Amount of ^125I labeled TGF-β1 bound to TβRIII (TβRIII): 726
blocking of growth inhibition of TGF-β1 [2]: blocks growth inhibition of TGF-β1

O=C(O)c1c(Br)c(Br)c(Br)c(Br)c1C1c2ccc(O)cc2Oc2cc(O)ccc21 [NSC 119889]
Amount of ^125I labeled TGF-β1 in solution (^125I labeled TGF-β1; first value column): 38324
increase in the amount of ^125I that remained in solution relative to the control (^125I labeled TGF-β1; relative to control): ~40%
Amount of ^125I labeled TGF-β1 in solution (^125I labeled TGF-β1; second value column): 27159
Amount of ^125I labeled TGF-β1 in solution (^125I labeled TGF-β1; third value column): 29239
blocking of TGF-β1 stimulation of CHO cell growth [3]: This stimulation was blocked
luciferase activity in the presence of TGF-β1 [4]: marked reduction in luciferase activity
Solubility [1]: no ppt
precipitate formation when diluted into water [1]: form less or no precipitate
amount of radioactivity incorporated into CHO cells (CHO cells; Experiment 1, average of duplicate assays): 1475
amount of radioactivity incorporated into CHO cells (CHO cells; Experiment 2, average of duplicate assays): 936
growth of CHO cells (in words) (CHO cells; two experiments): did not substantially inhibit growth of CHO cells
blocking of binding of ^125I labeled TGF-β1 to TβRIII (in words) (TβRIII): blocks binding of the ^125I labeled TGF-β1 to TβRIII
Amount of ^125I labeled TGF-β1 bound to TβRIII (TβRIII): 746
blocking of growth inhibition of TGF-β1 [2]: blocks growth inhibition of TGF-β1

O=C(O)C1CCCCC1c1c2ccc(=O)c(O)c-2oc2c(O)c(O)ccc12 (stereo not shown) [NSC 119910]
Amount of ^125I labeled TGF-β1 in solution (^125I labeled TGF-β1; second value column): 24924
Amount of ^125I labeled TGF-β1 in solution (^125I labeled TGF-β1; third value column): 20587
Solubility [1]: ppt
precipitate formation when diluted into water [1]: form precipitates

O=C(O)c1c[nH]c2cc(OCc3ccccc3)ccc2c1=O [NSC 306960]
Amount of ^125I labeled TGF-β1 in solution (^125I labeled TGF-β1; first value column): 32155
luciferase activity in the presence of TGF-β1 [4]: did not inhibit TGF-β1 induction of luciferase activity
Solubility [1]: no ppt
blocking of growth inhibition of TGF-β1 [2]: did not block the growth inhibition activity of TGF-β1

CC1C2C=CC1C(c1c3ccc(=O)c(O)c-3oc3c(O)c(O)ccc13)C2C(=O)O (stereo not shown) [NSC 119913]
Amount of ^125I labeled TGF-β1 in solution (^125I labeled TGF-β1; second value column): 27614
Amount of ^125I labeled TGF-β1 in solution (^125I labeled TGF-β1; third value column): 27960
Solubility [1]: no ppt
precipitate formation when diluted into water [1]: form less or no precipitate
